{"source": "patent US10563263B2", "about": "“Genetic polymorphisms associated with statin response and cardiovascular diseases, methods of detection and uses thereof” (CELERA CORPORATION, priority 2010, dated 2020)", "tested_on": "CHD (death from CHD, nonfatal MI, or revascularization)", "experiment": "WOSCOPS: SNP by pravastatin treatment interaction, logistic regression (synergy index), CHD endpoint", "format": "in vivo, human", "conditions": "for OR (synergy index): WOSCOPS", "text": "CARE was a secondary prevention trial and WOSCOPS was a primary prevention trial.\nThe CHD endpoint was defined in the analyses herein of CARE as a composite endpoint of fatal CHD, definite non-fatal MI, or revascularization, and was defined in the analyses herein of WOSCOPS as a composite endpoint of death from CHD, nonfatal MI, or revascularization. In both the CARE and WOSCOPS analyses herein, the CVD endpoint was defined as a composite endpoint of CHD or stroke. […] Revascularization, which can include percutaneous transluminal coronary angioplasty (PTCA), stent placement, and coronary artery bypass graft (CABG), are medical interventions that indicate the presence of CHD.\nCohort and case-only study designs were used to identify SNPs associated with response to statin treatment.\nFor each SNP, a logistic regression model having treatment status as the dependent variable and SNP as the independent predictor variable was performed, with terms for age, sex and race included in the model as covariates. The anti-log of the regression coefficient corresponding to the SNP is an estimate of the synergy index (SI) (Davis et al., “Imputing gene-treatment interactions when the genotype distribution is unknown using case-only and putative placebo analyses-a new method for the Genetics of Hypertension Associated Treatment (GenHAT) study”, Statistics in Medicine 23: (2004), pages 2413-2427). The SI is a ratio of odds ratios: for example in the CARE and WOSCOPS studies, the SI represents the factor by which the odds-ratio of statin treatment, compared with placebo, among major homozygous individuals is multiplied by in order to obtain the odds-ratio of treatment vs. placebo among heterozygous individuals; and multiplied by a second time to obtain the odds-ratio of treatment vs. placebo in minor homozygous individuals. The case-only study design results in a valid estimate of the SI under the assumption that genotype and treatment are independent in the population. In a randomized clinical trial, genotype and treatment are independent by design. The p-value for the regression coefficient corresponding to the SNP results from a test of the null hypothesis that the regression coefficient is equal to zero (SI is equal to one) and thus small p-values indicate the SI is unlikely equal to one and that the effect of treatment likely differs by genotype. […]", "data": [{"smiles": "CC[C@H](C)C(=O)O[C@H]1C[C@H](O)C=C2C=C[C@H](C)[C@H](CC[C@@H](O)C[C@@H](O)CC(=O)O)[C@H]21", "note": "[Pravastatin, pravastatin]", "values": [{"measurement": "WOSCOPS OR", "setting": "rs4726711, source CaseOnly, model add, endpoint CHD", "value": 0.62}, {"measurement": "OR (synergy index)", "setting": "rs4736802 allele G, DOM model, Imputed", "value": 1.614}, {"measurement": "OR (synergy index)", "setting": "rs4760785 allele A, ADD model, Imputed", "value": 0.7714}, {"measurement": "OR (synergy index)", "setting": "rs4760785 allele A, DOM model, Imputed", "value": 0.5986}, {"measurement": "OR (synergy index)", "setting": "rs4760894 allele T, ADD model, Imputed", "value": 0.7714}, {"measurement": "OR (synergy index)", "setting": "rs4760894 allele T, DOM model, Imputed", "value": 0.5986}, {"measurement": "OR (synergy index)", "setting": "rs4760895 allele A, ADD model, Imputed", "value": 0.7714}, {"measurement": "OR (synergy index)", "setting": "rs4760895 allele A, DOM model, Imputed", "value": 0.5986}, {"measurement": "OR (synergy index)", "setting": "rs4764738 allele A, ADD model, Imputed", "value": 1.555}, {"measurement": "OR (synergy index)", "setting": "rs4764974 allele T, ADD model, Imputed", "value": 1.512}, {"measurement": "OR (synergy index)", "setting": "rs4798366 allele G, REC model, Imputed", "value": 2.304}, {"measurement": "WOSCOPS OR", "setting": "rs4830819, source CaseOnly, model add, endpoint CHD", "value": 0.66}, {"measurement": "OR (synergy index)", "setting": "rs4836502 allele T, DOM model, Imputed", "value": 0.6887}, {"measurement": "OR (synergy index)", "setting": "rs4836507 allele C, DOM model, Imputed", "value": 0.6884}, {"measurement": "OR (synergy index)", "setting": "rs4836744 allele A, ADD model, Imputed", "value": 0.7704}, {"measurement": "OR (synergy index)", "setting": "rs4836744 allele A, DOM model, Imputed", "value": 0.6637}, {"measurement": "WOSCOPS OR", "setting": "rs4836745, Source caseonly", "value": 0.65}, {"measurement": "OR (synergy index)", "setting": "rs4848944 allele C, REC model, Genotyped", "value": 0.464}, {"measurement": "OR (synergy index)", "setting": "rs4851529 allele A, DOM model, Imputed", "value": 0.5663}, {"measurement": "OR (synergy index)", "setting": "rs4851531 allele T, DOM model, Imputed", "value": 0.5588}, {"measurement": "WOSCOPS OR", "setting": "rs4870109, Source caseonly", "value": 1.47}, {"measurement": "OR (synergy index)", "setting": "rs4878214 allele A, ADD model, Imputed", "value": 0.7413}, {"measurement": "OR (synergy index)", "setting": "rs4880803 allele A, ADD model, Imputed", "value": 0.7588}, {"measurement": "OR (synergy index)", "setting": "rs4896568 allele T, DOM model, Imputed", "value": 0.5426}, {"measurement": "WOSCOPS OR", "setting": "rs4924215, source CaseOnly, model dom, endpoint CHD", "value": 1.46}, {"measurement": "OR (synergy index)", "setting": "rs4938851 allele T, DOM model, Imputed", "value": 1.301}, {"measurement": "OR (synergy index)", "setting": "rs4964416 allele C, DOM model, Imputed", "value": 0.6799}, {"measurement": "WOSCOPS OR", "setting": "rs5750116, source cohort, model dom, endpoint CHD", "value": 1.45}, {"measurement": "OR (synergy index)", "setting": "rs5756669 allele C, DOM model, Imputed", "value": 1.541}, {"measurement": "OR (synergy index)", "setting": "rs6033138 allele C, ADD model, Imputed", "value": 1.407}, {"measurement": "OR (synergy index)", "setting": "rs6033138 allele C, REC model, Imputed", "value": 1.414}, {"measurement": "OR (synergy index)", "setting": "rs6040619 allele C, ADD model, Imputed", "value": 1.488}, {"measurement": "OR (synergy index)", "setting": "rs6040619 allele C, REC model, Imputed", "value": 1.688}, {"measurement": "OR (synergy index)", "setting": "rs6040625 allele T, ADD model, Imputed", "value": 1.479}, {"measurement": "OR (synergy index)", "setting": "rs6040625 allele T, REC model, Imputed", "value": 1.634}, {"measurement": "OR (synergy index)", "setting": "rs6040630 allele A, ADD model, Imputed", "value": 1.42}, {"measurement": "OR (synergy index)", "setting": "rs6040630 allele A, REC model, Imputed", "value": 1.462}, {"measurement": "OR (synergy index)", "setting": "rs6040633 allele A, ADD model, Imputed", "value": 1.407}, {"measurement": "WOSCOPS OR", "setting": "rs6080603, source CaseOnly, model dom, endpoint CHD", "value": 0.68}, {"measurement": "WOSCOPS OR", "setting": "rs6474228, Source caseonly", "value": 1.83}, {"measurement": "WOSCOPS OR", "setting": "rs6491586, source CaseOnly, model dom, endpoint CHD", "value": 1.78}, {"measurement": "WOSCOPS OR", "setting": "rs6505669, source CaseOnly, model dom, endpoint CHD", "value": 1.37}, {"measurement": "WOSCOPS OR", "setting": "rs6585412, Source caseonly", "value": 1.44}, {"measurement": "WOSCOPS OR", "setting": "rs6998016, Source caseonly", "value": 9.63}, {"measurement": "WOSCOPS OR", "setting": "rs7018577, Source caseonly", "value": 1.94}, {"measurement": "WOSCOPS OR", "setting": "rs7078016, Source caseonly", "value": 1.44}, {"measurement": "WOSCOPS OR", "setting": "rs7193741, source cohort, model rec, endpoint CHD", "value": 1.87}, {"measurement": "WOSCOPS OR", "setting": "rs7305949, Source caseonly", "value": 1.74}, {"measurement": "WOSCOPS OR", "setting": "rs7332076, Source caseonly", "value": 2.18}, {"measurement": "WOSCOPS OR", "setting": "rs7449527, Source caseonly", "value": 1.71}, {"measurement": "WOSCOPS OR", "setting": "rs7521242, source CaseOnly, model add, endpoint CHD", "value": 0.74}, {"measurement": "WOSCOPS OR", "setting": "rs7625204, source cohort, model add, endpoint CHD", "value": 1.38}, {"measurement": "WOSCOPS OR", "setting": "rs7629632, source CaseOnly, model dom, endpoint CHD", "value": 1.72}, {"measurement": "WOSCOPS OR", "setting": "rs7705993, source CaseOnly, model add, endpoint CHD", "value": 1.44}, {"measurement": "WOSCOPS OR", "setting": "rs7742508, source cohort, model dom, endpoint CHD", "value": 1.93}, {"measurement": "WOSCOPS OR", "setting": "rs7839562, Source caseonly", "value": 1.63}, {"measurement": "WOSCOPS OR", "setting": "rs7916629, Source caseonly", "value": 1.66}, {"measurement": "WOSCOPS OR", "setting": "rs9446187, source cohort, model dom, endpoint CHD", "value": 2.05}, {"measurement": "WOSCOPS OR", "setting": "rs9859901, source CaseOnly, model add, endpoint CHD", "value": 0.41}, {"measurement": "WOSCOPS OR", "setting": "rs10120126, source CaseOnly, model dom, endpoint CHD", "value": 0.48}, {"measurement": "WOSCOPS OR", "setting": "rs10155047, source cohort, model add, endpoint CHD", "value": 0.50}, {"measurement": "WOSCOPS OR", "setting": "rs10189905, source cohort, model add, endpoint CHD", "value": 0.56}, {"measurement": "WOSCOPS OR", "setting": "rs10305439, source CaseOnly, model dom, endpoint CHD", "value": 0.63}, {"measurement": "WOSCOPS OR", "setting": "rs10429616, source cohort, model rec, endpoint CHD", "value": 1.54}, {"measurement": "WOSCOPS OR", "setting": "rs10497883, Source caseonly", "value": 0.67}, {"measurement": "WOSCOPS OR", "setting": "rs10500736, source cohort, model dom, endpoint CHD", "value": 0.52}, {"measurement": "WOSCOPS OR", "setting": "rs10774580, Source caseonly", "value": 0.56}, {"measurement": "WOSCOPS OR", "setting": "rs10814422, source CaseOnly, model dom, endpoint CHD", "value": 0.46}, {"measurement": "WOSCOPS OR", "setting": "rs10935907, source CaseOnly, model dom, endpoint CHD", "value": 1.49}, {"measurement": "WOSCOPS OR", "setting": "rs10945874, Source caseonly", "value": 1.24}, {"measurement": "WOSCOPS OR", "setting": "rs10973013, source CaseOnly, model dom, endpoint CHD", "value": 0.48}, {"measurement": "WOSCOPS OR", "setting": "rs11138314, Source cohort", "value": 0.59}, {"measurement": "WOSCOPS OR", "setting": "rs11148285, Source caseonly", "value": 2.30}, {"measurement": "WOSCOPS OR", "setting": "rs11585647, Source caseonly", "value": 0.67}, {"measurement": "WOSCOPS OR", "setting": "rs11721179, Source caseonly", "value": 0.60}, {"measurement": "WOSCOPS OR", "setting": "rs12556591, source CaseOnly, model add, endpoint CHD", "value": 0.66}, {"measurement": "WOSCOPS OR", "setting": "rs13126170, Source caseonly", "value": 0.78}, {"measurement": "WOSCOPS OR", "setting": "rs13129010, Source caseonly", "value": 1.90}, {"measurement": "WOSCOPS OR", "setting": "rs13137776, source CaseOnly, model add, endpoint CHD", "value": 0.62}, {"measurement": "WOSCOPS OR", "setting": "rs13279522, source cohort, model add, endpoint CHD", "value": 0.63}, {"measurement": "WOSCOPS OR", "setting": "rs13318232, source CaseOnly, model dom, endpoint CHD", "value": 0.40}, {"measurement": "WOSCOPS OR", "setting": "rs13431868, source CaseOnly, model dom, endpoint CHD", "value": 1.42}, {"measurement": "WOSCOPS OR", "setting": "rs16885715, Source caseonly", "value": 1.58}, {"measurement": "WOSCOPS OR", "setting": "rs17002013, Source caseonly", "value": 1.66}, {"measurement": "WOSCOPS OR", "setting": "rs17076974, source cohort, model add, endpoint CHD", "value": 1.32}, {"measurement": "WOSCOPS OR", "setting": "rs17138705, source CaseOnly, model add, endpoint CHD", "value": 0.70}, {"measurement": "WOSCOPS OR", "setting": "rs17688430, Source caseonly", "value": 0.71}, {"measurement": "WOSCOPS OR", "setting": "rs17706237, source CaseOnly, model dom, endpoint CHD", "value": 1.52}]}]}
